Results reported in ChEMBL document CHEMBL1144155, “Synthesis of 3-alkyl naphthalenes as novel estrogen receptor ligands” (Bioorg Med Chem Lett, 2008).

Target: T1, Estrogen receptor (Homo sapiens, UniProt P03372)
T1 sequence (P03372 whole entry): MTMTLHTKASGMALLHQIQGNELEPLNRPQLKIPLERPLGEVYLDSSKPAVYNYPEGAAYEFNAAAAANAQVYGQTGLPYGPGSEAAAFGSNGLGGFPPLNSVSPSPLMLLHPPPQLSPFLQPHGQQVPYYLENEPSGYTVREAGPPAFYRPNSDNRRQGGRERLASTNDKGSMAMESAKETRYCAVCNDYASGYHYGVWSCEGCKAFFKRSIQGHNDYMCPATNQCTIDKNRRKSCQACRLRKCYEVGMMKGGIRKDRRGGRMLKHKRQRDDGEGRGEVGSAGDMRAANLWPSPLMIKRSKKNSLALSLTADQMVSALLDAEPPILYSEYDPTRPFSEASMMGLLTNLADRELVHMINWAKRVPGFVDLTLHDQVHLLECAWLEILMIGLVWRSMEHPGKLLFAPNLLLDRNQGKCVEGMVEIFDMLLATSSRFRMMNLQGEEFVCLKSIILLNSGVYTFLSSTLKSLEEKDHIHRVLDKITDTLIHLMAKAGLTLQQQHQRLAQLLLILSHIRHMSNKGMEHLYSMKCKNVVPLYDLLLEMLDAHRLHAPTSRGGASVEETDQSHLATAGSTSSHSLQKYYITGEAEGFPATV

Point of comparison: CCCCCc1cc2cc(O)ccc2c(Oc2ccc(/C=C/C(=O)O)cc2)c1-c1ccccc1, Ki 0.002 µM. Against it:
- COCc1cc2ccccc2c(Oc2ccc(/C=C/C(=O)O)cc2)c1-c1ccccc1 — 350-fold higher, 0.692 µM
- CCCCc1cc2cc(O)ccc2c(Oc2ccc(/C=C/C(=O)O)cc2)c1-c1ccccc1 — 2-fold higher, 0.004 µM
- CCCCc1cc2ccccc2c(Oc2ccc(/C=C/C(=O)O)cc2)c1-c1ccc(O)cc1 — 26-fold higher, 0.052 µM
- CCCCc1cc2ccccc2c(Oc2ccc(/C=C/C(=O)O)cc2)c1-c1ccccc1 — 490-fold higher, 0.977 µM
- O=C(O)/C=C/c1ccc(Oc2c(-c3ccccc3)c(C3CC3)cc3cc(O)ccc23)cc1 — 30-fold higher, 0.06 µM
- CCCCCCCCc1cc2cc(O)ccc2c(Oc2ccc(/C=C/C(=O)O)cc2)c1-c1ccccc1 — 28-fold higher, 0.055 µM
- CCCCc1cc2ccccc2c(Oc2ccc(/C=C/C(=O)O)cc2)c1-c1ccc(F)cc1 — 360-fold higher, 0.724 µM
- CCCCc1cc2ccccc2c(Oc2ccc(/C=C/C(=O)O)cc2)c1-c1ccc(OC)cc1 — 79-fold higher, 0.158 µM
- CC(C)Cc1cc2cc(O)ccc2c(Oc2ccc(/C=C/C(=O)O)cc2)c1-c1ccccc1 — 14-fold higher, 0.028 µM

Target: Estrogen receptor beta (Homo sapiens, UniProt Q92731)
Sequence (Q92731 whole entry): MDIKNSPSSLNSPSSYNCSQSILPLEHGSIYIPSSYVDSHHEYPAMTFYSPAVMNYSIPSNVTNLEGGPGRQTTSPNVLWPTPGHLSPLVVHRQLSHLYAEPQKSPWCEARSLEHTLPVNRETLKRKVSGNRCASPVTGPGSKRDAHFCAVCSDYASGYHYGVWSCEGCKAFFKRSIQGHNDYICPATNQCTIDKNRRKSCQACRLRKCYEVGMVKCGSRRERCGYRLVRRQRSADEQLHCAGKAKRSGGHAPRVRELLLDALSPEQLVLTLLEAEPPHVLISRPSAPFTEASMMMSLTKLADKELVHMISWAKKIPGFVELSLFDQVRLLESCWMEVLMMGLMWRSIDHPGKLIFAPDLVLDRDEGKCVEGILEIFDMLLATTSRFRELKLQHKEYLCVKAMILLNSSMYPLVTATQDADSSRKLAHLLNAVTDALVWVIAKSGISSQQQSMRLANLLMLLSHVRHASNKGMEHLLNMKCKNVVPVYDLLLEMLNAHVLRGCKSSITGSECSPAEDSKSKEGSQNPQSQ

Point of comparison: CCCCc1cc2ccccc2c(Oc2ccc(/C=C/C(=O)O)cc2)c1-c1ccccc1, Ki 0.17 µM. Against it:
- COCc1cc2ccccc2c(Oc2ccc(/C=C/C(=O)O)cc2)c1-c1ccccc1 — 2.9-fold higher, 0.501 µM
- CCCCc1cc2cc(O)ccc2c(Oc2ccc(/C=C/C(=O)O)cc2)c1-c1ccccc1 — 42-fold lower, 0.004 µM
- CCCCc1cc2ccccc2c(Oc2ccc(/C=C/C(=O)O)cc2)c1-c1ccc(O)cc1 — 3.5-fold lower, 0.048 µM
- CCCCCc1cc2cc(O)ccc2c(Oc2ccc(/C=C/C(=O)O)cc2)c1-c1ccccc1 — 57-fold lower, 0.003 µM
- O=C(O)/C=C/c1ccc(Oc2c(-c3ccccc3)c(C3CC3)cc3cc(O)ccc23)cc1 — 11-fold lower, 0.016 µM
- CCCCCCCCc1cc2cc(O)ccc2c(Oc2ccc(/C=C/C(=O)O)cc2)c1-c1ccccc1 — 5.7-fold lower, 0.03 µM
- CCCCc1cc2ccccc2c(Oc2ccc(/C=C/C(=O)O)cc2)c1-c1ccc(F)cc1 — 1.5-fold lower, 0.11 µM
- CCCCc1cc2ccccc2c(Oc2ccc(/C=C/C(=O)O)cc2)c1-c1ccc(OC)cc1 — within 1.5-fold, 0.162 µM
- CC(C)Cc1cc2cc(O)ccc2c(Oc2ccc(/C=C/C(=O)O)cc2)c1-c1ccccc1 — 7.7-fold lower, 0.022 µM
